Measured values taken from a melting point compilation (Tetko et al.; mined from patent text by program, amines drawn as free bases though some values may be those of a salt).

First: NC(=O)c1ccc(-c2ccc(C(CC3CCOCC3)c3ccc(S(=O)(=O)C4CC4)cc3)[nH]2)nc1 (configuration not stated)
Second: CCCN(Cc1cccc(-c2noc(C)n2)c1)C(=O)Nc1ccc(Br)cc1
The melting point of the first is higher: 136 to 138 °C for the first, 113 to 114 °C for the second.

Compared with `COCOc1ccc(CSc2cnn(C(C)(C)C)c(=O)c2Cl)cc1`, `CCCC(COc1noc2ccc(Cl)cc12)NC=O` (configuration not stated) is higher in melting point: 50 to 54 °C for the first, 107 to 108 °C for the second.

Compared with `CCOC(=O)N1CCc2nc3cccc(N)c3c(C)c2CC1`, `CCOC(=O)c1cn(-c2ccc(F)cc2F)c2nc(N3CCC(NC(C)=O)C3)c(F)cc2c1=O` (configuration not stated) is higher in melting point: 182 °C for the first, 233 to 236 °C for the second.

In the case of `CC(=O)SCCC(=O)[C@@H]1CCCC[C@H]1C(=O)O` (relative stereo), the melting point is reported as 65 to 68 °C.
